Patent US9693556B2, “Herbicidal pyridazinone derivatives” (SYNGENTA LIMITED, priority 2011, dated 2017)

Assays:
Type in all cases: in vivo
[1] = system: Solanum nigrum (SOLNI); test: Post-emergence herbicidal glasshouse test on Solanum nigrum; settings: post-emergence; 1000 g/h; evaluated after 13 days
In short: (§1)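 Steps: sow seeds in standard soil; cultivate 1 d (pre-) or 8 d (post-emergence) at 24/16 °C, 14 h light, 65% humidity; spray 1000 g/h in acetone/water plus Tween 20; grow on, watering twice daily; score percentage damage after 13 d.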

[2] = system: Solanum nigrum (SOLNI); test: Pre-emergence herbicidal glasshouse test on Solanum nigrum; settings: pre-emergence; 1000 g/h; evaluated after 13 days
In short: as §1

[3] = system: Ipomoea hederacea (IPOHE); test: Pre-emergence herbicidal glasshouse test on Ipomoea hederacea; settings: pre-emergence; 1000 g/h; evaluated after 13 days
In short: as §1

[4] = system: Amaranthus retoflexus (AMARE); test: Post-emergence herbicidal glasshouse test on Amaranthus retoflexus; settings: post-emergence; 1000 g/h; evaluated after 13 days
In short: as §1

[5] = system: Setaria faberi (SETFA); test: Post-emergence herbicidal glasshouse test on Setaria faberi; settings: post-emergence; 1000 g/h; evaluated after 13 days
In short: as §1

[6] = system: Ipomoea hederacea (IPOHE); test: Post-emergence herbicidal glasshouse test on Ipomoea hederacea; settings: post-emergence; 1000 g/h; evaluated after 13 days
In short: as §1

[7] = system: Setaria faberi (SETFA); test: Pre-emergence herbicidal glasshouse test on Setaria faberi; settings: pre-emergence; 1000 g/h; evaluated after 13 days
In short: as §1

[8] = system: Amaranthus retoflexus (AMARE); test: Pre-emergence herbicidal glasshouse test on Amaranthus retoflexus; settings: pre-emergence; 1000 g/h; evaluated after 13 days
In short: as §1

[9] = system: Echinochloa crus-galli (ECHCG); test: Pre-emergence herbicidal glasshouse test on Echinochloa crus-galli; settings: pre-emergence; 1000 g/h; evaluated after 13 days
In short: as §1

[10] = system: Echinochloa crus-galli (ECHCG); test: Post-emergence herbicidal glasshouse test on Echinochloa crus-galli; settings: post-emergence; 1000 g/h; evaluated after 13 days
In short: as §1

[11] = system: Alopecurus myosuroides (ALOMY); test: Pre-emergence herbicidal glasshouse test on Alopecurus myosuroides; settings: pre-emergence; 1000 g/h; evaluated after 13 days
In short: as §1

[12] = system: Alopecurus myosuroides (ALOMY); test: Post-emergence herbicidal glasshouse test on Alopecurus myosuroides; settings: post-emergence; 1000 g/h; evaluated after 13 days
In short: as §1

Cc1c(-c2cnn(C)c(=O)c2O)ccc2c1C(=O)N(C)S2(=O)=O [Compound 1.035]
3 (3=40-59% damage): PRE Application SOLNI herbicidal damage (five point scale) [2]
2 (2=20-39% damage): POST Application ALOMY herbicidal damage (five point scale) [12]
4 (4=60-79% damage): PRE Application IPOHE herbicidal damage (five point scale) [3]
1 (1=0-19% damage): POST Application SETFA herbicidal damage (five point scale) [5] | PRE Application SETFA herbicidal damage (five point scale) [7] | PRE Application ALOMY herbicidal damage (five point scale) [11]
5 (5=80-100% damage): POST Application SOLNI herbicidal damage (five point scale) [1] | POST Application AMARE herbicidal damage (five point scale) [4] | POST Application IPOHE herbicidal damage (five point scale) [6] | PRE Application AMARE herbicidal damage (five point scale) [8] | PRE Application ECHCG herbicidal damage (five point scale) [9] | POST Application ECHCG herbicidal damage (five point scale) [10]

CCC(C)n1ncc(-c2ccc(S(C)(=O)=O)c(C3=NOCC3)c2C)c(O)c1=O (stereo not drawn) [Compound 1.003]
1 (1=0-19% damage): PRE Application SETFA herbicidal damage (five point scale) [7] | PRE Application ALOMY herbicidal damage (five point scale) [11]
5 (5=80-100% damage): POST Application SOLNI herbicidal damage (five point scale) [1] | POST Application AMARE herbicidal damage (five point scale) [4] | POST Application SETFA herbicidal damage (five point scale) [5] | POST Application IPOHE herbicidal damage (five point scale) [6] | PRE Application AMARE herbicidal damage (five point scale) [8] | PRE Application ECHCG herbicidal damage (five point scale) [9] | POST Application ECHCG herbicidal damage (five point scale) [10]
4 (4=60-79% damage): PRE Application SOLNI herbicidal damage (five point scale) [2]
2 (2=20-39% damage): POST Application ALOMY herbicidal damage (five point scale) [12]
3 (3=40-59% damage): PRE Application IPOHE herbicidal damage (five point scale) [3]

Cn1ncc(-c2ccc(C(F)(F)F)nc2O)c(O)c1=O [Compound 4.006]
2 (2=20-39% damage): POST Application IPOHE herbicidal damage (five point scale) [6]
1 (1=0-19% damage): PRE Application SOLNI herbicidal damage (five point scale) [2] | PRE Application IPOHE herbicidal damage (five point scale) [3] | POST Application SETFA herbicidal damage (five point scale) [5] | PRE Application SETFA herbicidal damage (five point scale) [7] | PRE Application AMARE herbicidal damage (five point scale) [8] | PRE Application ECHCG herbicidal damage (five point scale) [9] | POST Application ECHCG herbicidal damage (five point scale) [10] | PRE Application ALOMY herbicidal damage (five point scale) [11] | POST Application ALOMY herbicidal damage (five point scale) [12]
3 (3=40-59% damage): POST Application AMARE herbicidal damage (five point scale) [4]
4 (4=60-79% damage): POST Application SOLNI herbicidal damage (five point scale) [1]

COCn1ncc(-c2ccccc2S(C)(=O)=O)c(O)c1=O [Compound 1.144]
4 (4=60-79% damage): PRE Application IPOHE herbicidal damage (five point scale) [3] | PRE Application SETFA herbicidal damage (five point scale) [7]
5 (5=80-100% damage): POST Application SOLNI herbicidal damage (five point scale) [1] | PRE Application SOLNI herbicidal damage (five point scale) [2] | POST Application AMARE herbicidal damage (five point scale) [4] | POST Application SETFA herbicidal damage (five point scale) [5] | POST Application IPOHE herbicidal damage (five point scale) [6] | PRE Application AMARE herbicidal damage (five point scale) [8] | PRE Application ECHCG herbicidal damage (five point scale) [9] | POST Application ECHCG herbicidal damage (five point scale) [10] | PRE Application ALOMY herbicidal damage (five point scale) [11] | POST Application ALOMY herbicidal damage (five point scale) [12]

Cc1ccc(-n2cccc(-c3cnn(C)c(=O)c3O)c2=O)cc1 [Compound 9.017]
1 (1=0-19% damage): PRE Application SOLNI herbicidal damage (five point scale) [2] | PRE Application SETFA herbicidal damage (five point scale) [7] | PRE Application AMARE herbicidal damage (five point scale) [8] | PRE Application ECHCG herbicidal damage (five point scale) [9]
2 (2=20-39% damage): PRE Application IPOHE herbicidal damage (five point scale) [3] | POST Application SETFA herbicidal damage (five point scale) [5] | POST Application IPOHE herbicidal damage (five point scale) [6] | PRE Application ALOMY herbicidal damage (five point scale) [11] | POST Application ALOMY herbicidal damage (five point scale) [12]
4 (4=60-79% damage): POST Application SOLNI herbicidal damage (five point scale) [1]
5 (5=80-100% damage): POST Application ECHCG herbicidal damage (five point scale) [10]
3 (3=40-59% damage): POST Application AMARE herbicidal damage (five point scale) [4]

Cn1ncc(-c2ccc(C(F)(F)F)nc2C#N)c(O)c1=O [Compound 4.015]
1 (1=0-19% damage): POST Application SOLNI herbicidal damage (five point scale) [1] | PRE Application SOLNI herbicidal damage (five point scale) [2] | PRE Application IPOHE herbicidal damage (five point scale) [3] | POST Application AMARE herbicidal damage (five point scale) [4] | POST Application SETFA herbicidal damage (five point scale) [5] | POST Application IPOHE herbicidal damage (five point scale) [6] | PRE Application SETFA herbicidal damage (five point scale) [7] | PRE Application AMARE herbicidal damage (five point scale) [8] | PRE Application ECHCG herbicidal damage (five point scale) [9] | POST Application ECHCG herbicidal damage (five point scale) [10] | PRE Application ALOMY herbicidal damage (five point scale) [11] | POST Application ALOMY herbicidal damage (five point scale) [12]

COc1ccc(-c2c(C(F)(F)F)ccn(-c3cnn(C)c(=O)c3O)c2=O)cc1 [Compound 7.033]
3 (3=40-59% damage): POST Application IPOHE herbicidal damage (five point scale) [6]
4 (4=60-79% damage): PRE Application IPOHE herbicidal damage (five point scale) [3]
5 (5=80-100% damage): POST Application SOLNI herbicidal damage (five point scale) [1] | PRE Application SOLNI herbicidal damage (five point scale) [2] | POST Application AMARE herbicidal damage (five point scale) [4] | POST Application SETFA herbicidal damage (five point scale) [5] | PRE Application SETFA herbicidal damage (five point scale) [7] | PRE Application AMARE herbicidal damage (five point scale) [8] | PRE Application ECHCG herbicidal damage (five point scale) [9] | POST Application ECHCG herbicidal damage (five point scale) [10] | PRE Application ALOMY herbicidal damage (five point scale) [11] | POST Application ALOMY herbicidal damage (five point scale) [12]

Cn1ncc(-c2ccc([N+](=O)[O-])cc2S(C)(=O)=O)c(O)c1=O [Compound 2.032]
5 (5=80-100% damage): POST Application SOLNI herbicidal damage (five point scale) [1] | PRE Application SOLNI herbicidal damage (five point scale) [2] | POST Application AMARE herbicidal damage (five point scale) [4] | POST Application IPOHE herbicidal damage (five point scale) [6] | PRE Application AMARE herbicidal damage (five point scale) [8] | PRE Application ECHCG herbicidal damage (five point scale) [9] | POST Application ECHCG herbicidal damage (five point scale) [10]
2 (2=20-39% damage): PRE Application SETFA herbicidal damage (five point scale) [7] | PRE Application ALOMY herbicidal damage (five point scale) [11]
3 (3=40-59% damage): PRE Application IPOHE herbicidal damage (five point scale) [3] | POST Application ALOMY herbicidal damage (five point scale) [12]
4 (4=60-79% damage): POST Application SETFA herbicidal damage (five point scale) [5]

CC(=O)Oc1c(-c2ccc(C(F)(F)F)cc2S(C)(=O)=O)cnn(C)c1=O [Compound 3.001, [2-methyl-5-[2-methylsulfonyl-4-(trifluoromethyl)phenyl]-3-oxo-pyridazin-4-yl]acetate]
5 (5=80-100% damage): POST Application SOLNI herbicidal damage (five point scale) [1] | PRE Application SOLNI herbicidal damage (five point scale) [2] | PRE Application IPOHE herbicidal damage (five point scale) [3] | POST Application AMARE herbicidal damage (five point scale) [4] | POST Application SETFA herbicidal damage (five point scale) [5] | POST Application IPOHE herbicidal damage (five point scale) [6] | PRE Application SETFA herbicidal damage (five point scale) [7] | PRE Application AMARE herbicidal damage (five point scale) [8] | PRE Application ECHCG herbicidal damage (five point scale) [9] | POST Application ECHCG herbicidal damage (five point scale) [10] | PRE Application ALOMY herbicidal damage (five point scale) [11] | POST Application ALOMY herbicidal damage (five point scale) [12]

Cc1ccc(S(=O)(=O)Oc2c(-c3ccc(C(F)(F)F)cc3S(C)(=O)=O)cnn(C)c2=O)cc1 [Compound 3.006, [2-methyl-5-[2-methylsulfonyl-4-(trifluoromethyl)phenyl]-3-oxo-pyridazin-4-yl]4-methylbenzenesulfonate]
4 (4=60-79% damage): PRE Application IPOHE herbicidal damage (five point scale) [3]
5 (5=80-100% damage): POST Application SOLNI herbicidal damage (five point scale) [1] | PRE Application SOLNI herbicidal damage (five point scale) [2] | POST Application AMARE herbicidal damage (five point scale) [4] | POST Application SETFA herbicidal damage (five point scale) [5] | POST Application IPOHE herbicidal damage (five point scale) [6] | PRE Application SETFA herbicidal damage (five point scale) [7] | PRE Application AMARE herbicidal damage (five point scale) [8] | PRE Application ECHCG herbicidal damage (five point scale) [9] | POST Application ECHCG herbicidal damage (five point scale) [10] | PRE Application ALOMY herbicidal damage (five point scale) [11] | POST Application ALOMY herbicidal damage (five point scale) [12]
